Laboratory results from ChEMBL document CHEMBL3044830, “Synthesis, characterization, antibacterial, antifungal, and immunomodulating activities of gatifloxacin derivatives” (Med Chem Res, 2010).

Tests used:
[1] = system: Proteus mirabilis; assay: Antibacterial activity against Proteus mirabilis assessed as concentration required to obtain a zone of inhibition of 20 mm after 18 to 24 hr by disc diffusion method; format: functional
[2] = system: Shigella flexneri; assay: Antibacterial activity against Shigella flexneri assessed as concentration required to obtain a zone of inhibition of 10 mm after 18 to 24 hr by disk diffusion method; format: functional
[3] = system: T-cell; assay: Anti-inflammatory activity in Homo sapiens (human) T lymphocytes assessed as inhibition of PHA-induced [3H] thymidine uptake at 12.5 ug/ml incubated for 72 hr prior to [3H]thymidine addition measured after 18 hr by liquid scintillation method; format: functional
[4] = system: Pseudomonas aeruginosa; assay: Antibacterial activity against Pseudomonas aeruginosa assessed as concentration required to obtain a zone of inhibition of 20 mm after 18 to 24 hr by disk diffusion method; format: functional
[5] = system: Candida albicans; assay: Antifungal activity against Candida albicans assessed as concentration required to obtain a zone of inhibition of 40 mm after 7 days by disk diffusion method; format: functional
[6] = system: Trichophyton rubrum; assay: Antifungal activity against Trichophyton rubrum assessed as concentration required to obtain a zone of inhibition of 40 mm after 7 days by disk diffusion method; format: functional
[7] = system: Klebsiella pneumoniae; assay: Antibacterial activity against Klebsiella pneumoniae assessed as concentration required to obtain a zone of inhibition of 20 mm after 18 to 24 hr by disk diffusion method; format: functional
[8] = system: Shigella sp.; assay: Antibacterial activity against Shigella typhi assessed as concentration required to obtain a zone of inhibition of 20 mm after 18 to 24 hr by disc diffusion method; format: functional
[9] = system: Blood; assay: Antioxidant activity in Homo sapiens (human) whole blood assessed as inhibition of ROS production after 30 min by luminol-enhanced chemiluminescence assay; format: functional, tissue-based; details: 0.5 h
[10] = system: Fusarium solani; assay: Antifungal activity against Fusarium solani assessed as concentration required to obtain a zone of inhibition of 20 mm after 7 days by disk diffusion method; format: functional
[11] = system: Shigella flexneri; assay: Antibacterial activity against Shigella flexneri assessed as concentration required to obtain a zone of inhibition of 20 mm after 18 to 24 hr by disk diffusion method; format: functional
[12] = system: T-cell; assay: Anti-inflammatory activity in Homo sapiens (human) T lymphocytes assessed as inhibition of PHA-induced [3H] thymidine uptake at 3.12 ug/ml incubated for 72 hr prior to [3H]thymidine addition measured after 18 hr by liquid scintillation method; format: functional
[13] = system: Klebsiella pneumoniae; assay: Antibacterial activity against Klebsiella pneumoniae assessed as concentration required to obtain a zone of inhibition of 5 mm after 18 to 24 hr by disk diffusion method; format: functional
[14] = system: Proteus mirabilis; assay: Antibacterial activity against Proteus mirabilis assessed as concentration required to obtain a zone of inhibition of 5 mm after 18 to 24 hr by disc diffusion method; format: functional
[15] = system: Citrobacter; assay: Antibacterial activity against Citrobacter assessed as concentration required to obtain a zone of inhibition of 20 mm after 18 to 24 hr by disk diffusion method; format: functional
[16] = system: Shigella flexneri; assay: Antibacterial activity against Shigella flexneri assessed as concentration required to obtain a zone of inhibition of 5 mm after 18 to 24 hr by disk diffusion method; format: functional
[17] = system: Blood; assay: Antioxidant activity in Homo sapiens (human) whole blood assessed as inhibition of ROS production at 50 ug/ml after 30 min by luminol-enhanced chemiluminescence assay; format: functional; details: 0.5 h
[18] = system: Bacillus subtilis; assay: Antibacterial activity against Bacillus subtilis assessed as concentration required to obtain a zone of inhibition of 5 mm after 18 to 24 hr by disk diffusion method; format: functional
[19] = system: Blood; assay: Antioxidant activity in Homo sapiens (human) whole blood assessed as inhibition of ROS production at 100 ug/ml after 30 min by luminol-enhanced chemiluminescence assay; format: functional; details: 0.5 h
[20] = system: Citrobacter; assay: Antibacterial activity against Citrobacter assessed as concentration required to obtain a zone of inhibition of 5 mm after 18 to 24 hr by disk diffusion method; format: functional
[21] = system: Bacillus subtilis; assay: Antibacterial activity against Bacillus subtilis assessed as concentration required to obtain a zone of inhibition of 10 mm after 18 to 24 hr by disk diffusion method; format: functional
[22] = system: Escherichia coli; assay: Antibacterial activity against Escherichia coli assessed as concentration required to obtain a zone of inhibition of 5 mm after 18 to 24 hr by disk diffusion method; format: functional
[23] = system: Pseudomonas aeruginosa; assay: Antibacterial activity against Pseudomonas aeruginosa assessed as concentration required to obtain a zone of inhibition of 5 mm after 18 to 24 hr by disk diffusion method; format: functional
[24] = Antibacterial activity against Hofmanni bacterium assessed as concentration required to obtain a zone of inhibition of 5 mm after 18 to 24 hr by disc diffusion method
[25] = Antibacterial activity against Hofmanni bacterium assessed as concentration required to obtain a zone of inhibition of 20 mm after 18 to 24 hr by disc diffusion method
[26] = system: Escherichia coli; assay: Antibacterial activity against Escherichia coli assessed as concentration required to obtain a zone of inhibition of 10 mm after 18 to 24 hr by disk diffusion method; format: functional
[27] = system: Pseudomonas aeruginosa; assay: Antibacterial activity against Pseudomonas aeruginosa assessed as concentration required to obtain a zone of inhibition of 10 mm after 18 to 24 hr by disk diffusion method; format: functional
[28] = system: Candida albicans; assay: Antifungal activity against Candida albicans assessed as concentration required to obtain a zone of inhibition of 20 mm after 7 days by disk diffusion method; format: functional
[29] = system: Citrobacter; assay: Antibacterial activity against Citrobacter assessed as concentration required to obtain a zone of inhibition of 10 mm after 18 to 24 hr by disk diffusion method; format: functional
[30] = system: Fusarium solani; assay: Antifungal activity against Fusarium solani assessed as concentration required to obtain a zone of inhibition of 40 mm after 7 days by disk diffusion method; format: functional
[31] = system: T-cell; assay: Anti-inflammatory activity in Homo sapiens (human) T lymphocytes assessed as inhibition of PHA-induced [3H] thymidine uptake at 50 ug/ml incubated for 72 hr prior to [3H]thymidine addition measured after 18 hr by liquid scintillation method; format: functional
[32] = system: Shigella sp.; assay: Antibacterial activity against Shigella typhi assessed as concentration required to obtain a zone of inhibition of 5 mm after 18 to 24 hr by disc diffusion method; format: functional
[33] = system: Klebsiella pneumoniae; assay: Antibacterial activity against Klebsiella pneumoniae assessed as concentration required to obtain a zone of inhibition of 10 mm after 18 to 24 hr by disk diffusion method; format: functional
[34] = system: Blood; assay: Antioxidant activity in Homo sapiens (human) whole blood assessed as inhibition of ROS production at 12.5 ug/ml after 30 min by luminol-enhanced chemiluminescence assay; format: functional; details: 0.5 h
[35] = system: Trichophyton rubrum; assay: Antifungal activity against Trichophyton rubrum assessed as concentration required to obtain a zone of inhibition of 20 mm after 7 days by disk diffusion method; format: functional
[36] = system: Escherichia coli; assay: Antibacterial activity against Escherichia coli assessed as concentration required to obtain a zone of inhibition of 20 mm after 18 to 24 hr by disk diffusion method; format: functional
[37] = system: T-cell; assay: Anti-inflammatory activity in Homo sapiens (human) T lymphocytes assessed as inhibition of PHA-induced [3H] thymidine uptake incubated for 72 hr prior to [3H]thymidine addition measured after 18 hr by liquid scintillation method; format: functional, cell-based
[38] = system: Bacillus subtilis; assay: Antibacterial activity against Bacillus subtilis assessed as concentration required to obtain a zone of inhibition of 20 mm after 18 to 24 hr by disk diffusion method; format: functional
[39] = Antibacterial activity against Hofmanni bacterium assessed as concentration required to obtain a zone of inhibition of 10 mm after 18 to 24 hr by disc diffusion method
[40] = system: Proteus mirabilis; assay: Antibacterial activity against Proteus mirabilis assessed as concentration required to obtain a zone of inhibition of 10 mm after 18 to 24 hr by disc diffusion method; format: functional

COc1c(N2CCNC(C)C2)c(F)cc2c(=O)c(C(=O)O)cn(C3CC3)c12 (stereo not given) [GATIFLOXACIN]
Activity [1]: 19 µg/mL
Activity [2]: 16 µg/mL
inhibition at 12.5 µg/mL [3]: -97.9%
Activity [4]: 14 µg/mL
Activity [5]: 9 µg/mL
Activity [6]: 14 µg/mL
Activity [7]: 19 µg/mL
Activity [8]: 21 µg/mL
IC50 [9]: 31 µg/mL
Activity [10]: 12 µg/mL
Activity [11]: 23 µg/mL
inhibition at 3.12 µg/mL [12]: -71.1%
Activity [13]: 9 µg/mL
Activity [14]: 9 µg/mL
Activity [15]: 26 µg/mL
Activity [16]: 9 µg/mL
inhibition at 50 µg/mL [17]: 66%
Activity [18]: 11 µg/mL
inhibition at 100 µg/mL [19]: 84.7%
Activity [20]: 15 µg/mL
Activity [21]: 15 µg/mL
Activity [22]: 7.5 µg/mL
Activity [23]: 8 µg/mL
Activity [24]: 8 µg/mL
Activity [25]: 15 µg/mL
Activity [26]: 12 µg/mL
Activity [27]: 12 µg/mL
Activity [28]: 8 µg/mL
Activity [29]: 23 µg/mL
Activity [30]: 18 µg/mL
inhibition at 50 µg/mL [31]: -25.2%
Activity [32]: 8 µg/mL
Activity [33]: 14 µg/mL
inhibition at 12.5 µg/mL [34]: 19.7%
Activity [35]: 12 µg/mL
Activity [36]: 17 µg/mL
IC50 [37]: > 50 µg/mL
Activity [38]: 17 µg/mL
Activity [39]: 13 µg/mL
Activity [40]: 15 µg/mL
